EP0773292A1, “Immortalised embryonic hippocampal cells and their use” (BAYER AG, priority 1995, dated 1997)
Where two headings read alike, the source gives them in different places.

Assays:
Assay type in all cases: cell-based, murine
[1] = test system: HC e/n XVB cells; experiment: Electrophysiology: whole-cell patch-clamp, ligand-activated currents; details: for ligand-activated currents: membrane potential clamped to -70mV; for ligand induced inward currents: differentiated HC e/n XVB cells, AMPA 100µM, NMDA, kainate, glutamate 1mM
Method: (§1) Electrophysiological setup: Membrane currents were measured with the patch-clamp technique in the whole-cell recording configuration (Hamill et al. 1981, Pfluegers Arch. 391:85-100). Current signals were amplified with conventional electronics (EPC-9 amplifier, HEKA Elektronik GmbH, Lambrecht, Germany), filtered at 10kHz, and sampled at 5 kHz by an interface connected to an IBM AT-compatible computer system, which also served as a stimulus generator.
(§2) Solutions and electrodes: The standard bathing solution contained (in mM): Nacl 150, KCL 5, MgCl2 1.8, HEPES 5, and glucose 10. In some experiments an equimolar amount of NaCl was replaced by 5mM BaCl2. Recording pipettes had resistances about 5MΩ (Hilgenberg, Malsfeld, Germany). The pipettes contained (in mM): KCL 140, CaCl2 0.5, EGTA 5, MgCl2 2, and HEPES 10. The pH was adjusted to 7.4. In some experiments the pipette solution was designed to minimize the contribution of voltage-activated currents. In this case, investigating the ligand-activated currents, the pipette solution contained (in mM): CsCl 140, EGTA 10, and HEPES 10.
(§3) Ligands were dissolved in the extracellular saline solution and applied via an U-tube application system. To record ligand-induced currents, the membrane potential was clamped to -70mV. For measurements of voltage-activated currents, cells were held at -70mV and every second the membrane was stepped through a 50 msec. de- or hyperpolarising test pulse to a potential between -170 and +20 mV.

[2] = test system: HNMMCV11.2.0; experiment: Ca2+-imaging (Fura-2), rise in intracellular calcium; details: HNMMCV11.2.0; glutamate 10µM to 10 mM, AMPA, kainic acid, serotonine, dopamine, carbachol up to 1mM, NMDA up to 500µM
Method: (§4) Fluorescent Probe: Dynamic changes of intracellular calcium concentration were measured using the Fura-2 fluorescent probe (Roe et al. 1990, Cell Calcium 11:63-73). This fluorescent dye was chosen because of its selectivity, high quantum yield and extinction co-efficient. Fura-2 permeates the living cell as a acetoxymethylester and becomes trapped within the cell after hydrolysis by intracellular esterases. The calcium-sensitive free acid of Fura-2 is able to bind to calcium ions inside the cell. Fura-2 has an excitation maximum at 380 nm and the Fura2/calcium complex peaks at 340 nm. A change in intracellular calcium concentration was calculated by recording fluorescent video images at wavelengths of 340nm and 380nm excitation and 510nm emission and by dividing the grey values of the digitized video images of 380nm from 340nm.
(§5) Loading cells with Fura-2: A stock solution with 2mM Fura-2-acetoxymethylester in dimethylsulfoxide (DMSO) was diluted to 5-10 µM with serum free Minimal Essential Medium (MEM, Gibco) containing 1.5% bovine serum albumin and 5 mM calcium chloride. The cells were incubated in a Falcon 96 well plate for 45-60 minutes at 37°C. Subsequently the cells were washed twice in N-(2-Hydroxyethyl)piperazine-N'-(2-ethanesulfonic acid) (HEPES, 5mM) buffered Tyrode solution (HEPES buffered salt solution containing 130 mM NaCl, 5 mM KCl, 2 mM CaCl2, 1 mM MgCl2, 5mM NaHCO3, 11 mM Glucose).
(§6) Imaging procedure: 100 µl of Tyrode buffer was added to the plate wells and the cells were sequencially exposed to light at 340 nm and 380 nm under a fluorescent microscope (Nikon Diaphot). The exposition time was 100 ms. A series of video images at 3 second intervals was acquired and stored as digitised pictures in the image boards of an image analysis computer (Leica, Quantimet 570). After the acquisition of 8 images the test substances were applied. The grey levels of the cells, which correspond to the fluorescence intensity, were measured in the recorded video images. The ratio was determined by dividing the measured grey levels of the "380 nm images" by the grey levels of the "340 nm images" either from averaged images or from individual cells. For averaged results, the grey levels were measured over the whole images.
(§7) The cells were loaded with Fura 2/AM between day 3 and 7 in culture. A number of agonists were tested for their ability to activate specific receptors on the cell surface which leads to a rise in intracellular calcium. The rise in calcium concentration in the cytoplasm can occur after activation of specific calcium channels in the cell membrane, after activation of neurotransmitter receptors directly coupled to ion channels that are permeable to calcium ions (i.e. NMDA or AMPA type glutamate receptors), or by activation of receptors, which propagate the signal through the activation of specific G-proteins, which regulate the activity of different enzymes in the interior of the cell (Connor, Cell Calcium 14 (1993), 185-200; Crouch and Hendry, Medical Res. Rev. 13 (1993), 105-123). The activation of phospholipase C generates the second messengers diacylglycerol and inositoltriphosphate from phospholipids in the cell membrane. The binding of inositoltriphosphate to receptors localised on internal vesicles which store calcium ions leads to a transient rise in the concentration of calcium ions in the cytoplasm (Berridge, M.J. 1993, Nature 361: 315-325).

[3] = test system: HNMMCV13.1.E; experiment: as above; details: HNMMCV13.1.E; glutamate 10µM to 10 mM, AMPA, kainic acid, serotonine, dopamine, carbachol up to 1mM, NMDA up to 500µM
Method: as §4, §5, §6, §7

[4] = test system: HC e/n XV.B cells; experiment: as above
Method: as §4, §5, §6, §7

[5] = test system: HNMMCV14.1.A; experiment: as above; details: HNMMCV14.1.A; glutamate 10µM to 10 mM, AMPA, kainic acid, serotonine, dopamine, carbachol up to 1mM, NMDA up to 500µM
Method: as §4, §5, §6, §7

[6] = test system: HNMMCV13.1.F; experiment: as above; details: for transient rise in intracellular calcium concentration: HNMMCV13.1.F, glutamate 10µM to 10 mM, AMPA, kainic acid, serotonine, dopamine, carbachol up to 1mM, NMDA up to 500µM
Method: as §4, §5, §6, §7

[7] = test system: HNMMCV14.1.A; experiment: Electrophysiology: whole-cell patch-clamp, ligand-activated currents; details: 14.1.A; membrane potential clamped to -70mV
Method: as §1, §2, §3

[8] = test system: metabotropic glutamate receptor(s) (mGluR) expressed by HNMMCV14.1A cells; experiment: Second messenger: phosphoinositide hydrolysis, accumulation of 3H-inositol phosphates
Method: Phosphoinositide hydrolysis was determined by measuring the accumulation of ^3H-inositol phosphates. The cells were plated in 48-well plates (Costar) at a density of 10000 cells per well and incubated for 4-5 days at 37°C, 7% CO2. Then the cells were labeled by incubation with 4 µCi of myo-2-^3H-inositol per ml medium (specific activity: […]: Amersham). After 24 h LiCl (10 mM final concentration) was added to the cells for 1 h. Agonists were then added at the concentrations indicated. The incubation was stopped after 1 h by replacing the medium with 200 µl ice-cold methanol. 400 µl of destilled water was added and the sample was directly applied to AG-1X8 ion exchange columns (AG-1X8 resin: BioRad). Free inositol and glycerophosphoryl-inositol were washed away with 16 ml destilled water followed by 10 ml 5 mM disodium-tetraborate, 60 mM sodium formate. Total ^3H-inositol phosphates (IP1, IP2, IP3) were eluted with 7 ml of 100 mM formic acid, 1 M ammonium formate. Radioactivity of the eluted ^3H-inositol phosphates was determined by liquid scintillation counting after addition of 13 ml liquid scintillation cocktail (Ultima Gold: Canberra Packard). Measurements were performed in triplicates for each experimental point. Untreated controls were set as 100% and the other values calculated in relation to this.
The columns were prepared as follows: 1 ml pipet tips were filled with one glass bead (Roth) per tip before adding 500 µl AG-1X8 resin. The resin was compressed with air and 270 µl seasand was applied. Until use they were stored at 4°C.

[9] = HC e/n XV.B cells, state of differentiation not given, up to 1mM
[10] = differentiated HC e/n XV.B cells
[11] = HNMMCV14.1A cells, result in words

Cc1onc(O)c1CC(N)C(=O)O (stereo not shown) [AMPA, ∝-amino-3-hydroxy-5-methyl-4-isoxazol-propionic acid]
ligand-activated currents ([1]; XV. B/ - EGF (differentiated)): + (+: 10-30% positive cells)
ligand induced inward currents [1]: evoked responses with different peak amplitudes
transient rise in intracellular calcium concentration [2]: did not result in a transient rise in intracellular calcium concentrations
transient rise in intracellular calcium concentration [3]: did not result in a transient rise in intracellular calcium concentrations
transient rise in intracellular calcium concentration ([4]; undifferentiated HC e/n XV.B cells, AMPA, kainate up to 1mM, NMDA up to 500µM): did not result in a transient rise in intracellular calcium concentrations
transient rise in intracellular calcium concentration [5]: did not result in a transient rise in intracellular calcium concentrations
transient rise in intracellular calcium concentration [6]: did not result in a transient rise in intracellular calcium concentrations

CC(=O)OCC[N+](C)(C)C [Acetylcholine, acetylcholine]
ligand-activated currents ([1]; XV. B/ - EGF (differentiated)): -
ligand-activated currents [7]: + (+: 10-30% positive cells)

N#Cc1cc2[nH]c(=O)c(=O)[nH]c2cc1[N+](=O)[O-] [CNQX, 6-nitro-7-cyanochinoxalin-2,3-dione]
antagonism of the calcium signals recorded after application of glutamate ([6]; glutamate 100µM, CNQX 100µM, cell clone taken from Table 5 (13.1.F)): not antagonised

C[N+](C)(C)CCOC(N)=O [Carbachol]
transient rise in intracellular calcium concentration [2]: not in any other cell line tested
transient rise in intracellular calcium concentration [3]: not in any other cell line tested
transient rise in intracellular calcium concentration [4, 9]: reproducible signal
transient rise in intracellular calcium concentration [6]: not in any other cell line tested

NCCc1ccc(O)c(O)c1 [Dopamine, dopamine]
transient rise in intracellular calcium concentration [2]: did not lead to a specific signal
transient rise in intracellular calcium concentration [3]: did not lead to a specific signal
transient rise in intracellular calcium concentration [4, 9]: did not lead to a specific signal
transient rise in intracellular calcium concentration [5]: did not lead to a specific signal
transient rise in intracellular calcium concentration [6]: did not lead to a specific signal

NCCCC(=O)O [GABA]
reversal potential of the ligand-activated current ([1]; HC e/n XVB cells, membrane stepped from -100 to +40): ~+10 mV
ligand-activated currents ([1]; XV. B (with EGF, undifferentiated)): + (+: 10-30% positive cells)
ligand-activated currents ([1]; XV. B/ - EGF (differentiated)): +++ (+++: 70-100% positive cells)
ligand induced inward currents [1]: prominent resonses
ligand-activated currents [7]: ++ (++: 30-70% positive cells)

N[C@H](C(=O)O)[C@H]1C[C@@H]1C(=O)O [L-CCG 1, L-carboxycyclopropylglycin]
transient rise in intracellular calcium concentration [2]: strong
transient rise in intracellular calcium concentration [3]: strong
transient rise in intracellular calcium concentration [4, 10]: weak signals
transient rise in intracellular calcium concentration [5]: strong
transient rise in intracellular calcium concentration [6]: strong

CN[C@H](CC(=O)O)C(=O)O [NMDA, N-methyl-D-aspartate]
ligand-activated currents ([1]; XV. B/ - EGF (differentiated)): ++ (++: 30-70% positive cells)

N[C@@H](Cn1oc(=O)[nH]c1=O)C(=O)O [Quisqualate, quisqualate]
maximum responses (inositolphosphate accumulation) compared with glutamate ([8]; HNMMCV14.1A cells): slightly weaker
effect on inositolphosphate accumulation [8, 11]: concentration dependent increase

NCCc1c[nH]c2ccc(O)cc12 [Serotonine]
transient rise in intracellular calcium concentration [2]: did not lead to a specific signal
transient rise in intracellular calcium concentration [3]: did not lead to a specific signal
transient rise in intracellular calcium concentration [4, 9]: did not lead to a specific signal
transient rise in intracellular calcium concentration [5]: did not lead to a specific signal
transient rise in intracellular calcium concentration [6]: did not lead to a specific signal

NC(C(=O)O)c1cc(O)no1 (stereo not shown) [ibotenate]
effect on inositolphosphate accumulation [8]: concentration dependent increase
maximum responses (inositolphosphate accumulation) compared with glutamate [8]: slightly weaker

N[C@@]1(C(=O)O)CC[C@@H](C(=O)O)C1 [t-ACPD, 1S3R-aminocyclopentane-1,3-dicarboxylate]
maximum responses (inositolphosphate accumulation) compared with glutamate ([8]; HNMMCV14.1A cells): slightly weaker
effect on inositolphosphate accumulation [8, 11]: concentration dependent increase
transient rise in intracellular calcium concentration [2]: strong
transient rise in intracellular calcium concentration [3]: strong
transient rise in intracellular calcium concentration [4, 10]: weak signals
transient rise in intracellular calcium concentration [5]: strong
transient rise in intracellular calcium concentration [6]: strong
